# Experimental data published in US9321776B2, “Isochromene derivatives as phoshoinositide 3-kinases inhibitors” (CHIESI FARMACEUTICI S.p.A., priority 2013, dated 2016).
# Where a name gives a salt, the structure may show the parent alone.
# Tests used:
# PI3Kγ = molecular target: T1, PI3Kγ (Homo sapiens, UniProt P48736); assay: PI3K enzyme inhibitory activity in the cell free assay (ADP-Glo Kinase Assay); type: biochemical; details: human recombinant PI3Kγ, ATP 30 μM; read-out: PI3K gamma inhibition
# T1 construct: purchased Millipore Ltd (Billerica, Mass.)
# PI3Kδ = molecular target: T2, PI3Kδ (Homo sapiens, UniProt O00329); assay: as above; type: biochemical; details: human recombinant PI3Kδ, ATP 80 μM; read-out: PI3K delta inhibition
# T2 construct: purchased Millipore Ltd (Billerica, Mass.)
# T2 sequence (O00329 1-1044): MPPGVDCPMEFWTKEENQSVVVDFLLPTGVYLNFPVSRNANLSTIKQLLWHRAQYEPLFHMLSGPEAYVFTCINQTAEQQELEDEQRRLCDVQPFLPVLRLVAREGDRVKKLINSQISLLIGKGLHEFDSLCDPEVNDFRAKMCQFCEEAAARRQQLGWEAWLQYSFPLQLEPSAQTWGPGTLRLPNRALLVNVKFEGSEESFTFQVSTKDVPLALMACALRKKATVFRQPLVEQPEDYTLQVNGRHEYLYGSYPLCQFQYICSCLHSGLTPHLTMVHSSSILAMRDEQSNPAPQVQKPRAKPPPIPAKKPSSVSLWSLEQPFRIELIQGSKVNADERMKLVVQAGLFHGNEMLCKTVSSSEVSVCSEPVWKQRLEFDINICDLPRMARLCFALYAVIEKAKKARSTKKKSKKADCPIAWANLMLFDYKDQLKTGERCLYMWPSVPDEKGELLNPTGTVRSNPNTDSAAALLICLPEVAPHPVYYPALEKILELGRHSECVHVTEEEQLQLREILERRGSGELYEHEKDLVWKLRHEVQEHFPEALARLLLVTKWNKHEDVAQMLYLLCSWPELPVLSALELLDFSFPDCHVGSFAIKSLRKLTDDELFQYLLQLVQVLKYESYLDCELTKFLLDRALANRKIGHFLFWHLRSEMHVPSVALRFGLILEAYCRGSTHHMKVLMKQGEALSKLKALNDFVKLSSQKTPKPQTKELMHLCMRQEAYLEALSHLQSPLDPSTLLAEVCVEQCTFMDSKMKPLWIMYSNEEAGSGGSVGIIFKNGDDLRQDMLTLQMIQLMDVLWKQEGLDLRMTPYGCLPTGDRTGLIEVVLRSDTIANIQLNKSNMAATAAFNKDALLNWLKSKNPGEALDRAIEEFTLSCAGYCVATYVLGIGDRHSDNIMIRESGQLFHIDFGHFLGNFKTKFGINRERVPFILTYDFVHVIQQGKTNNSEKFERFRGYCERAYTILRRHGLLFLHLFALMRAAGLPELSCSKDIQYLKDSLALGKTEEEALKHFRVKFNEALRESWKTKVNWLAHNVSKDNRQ
# T1 sequence (P48736 whole entry): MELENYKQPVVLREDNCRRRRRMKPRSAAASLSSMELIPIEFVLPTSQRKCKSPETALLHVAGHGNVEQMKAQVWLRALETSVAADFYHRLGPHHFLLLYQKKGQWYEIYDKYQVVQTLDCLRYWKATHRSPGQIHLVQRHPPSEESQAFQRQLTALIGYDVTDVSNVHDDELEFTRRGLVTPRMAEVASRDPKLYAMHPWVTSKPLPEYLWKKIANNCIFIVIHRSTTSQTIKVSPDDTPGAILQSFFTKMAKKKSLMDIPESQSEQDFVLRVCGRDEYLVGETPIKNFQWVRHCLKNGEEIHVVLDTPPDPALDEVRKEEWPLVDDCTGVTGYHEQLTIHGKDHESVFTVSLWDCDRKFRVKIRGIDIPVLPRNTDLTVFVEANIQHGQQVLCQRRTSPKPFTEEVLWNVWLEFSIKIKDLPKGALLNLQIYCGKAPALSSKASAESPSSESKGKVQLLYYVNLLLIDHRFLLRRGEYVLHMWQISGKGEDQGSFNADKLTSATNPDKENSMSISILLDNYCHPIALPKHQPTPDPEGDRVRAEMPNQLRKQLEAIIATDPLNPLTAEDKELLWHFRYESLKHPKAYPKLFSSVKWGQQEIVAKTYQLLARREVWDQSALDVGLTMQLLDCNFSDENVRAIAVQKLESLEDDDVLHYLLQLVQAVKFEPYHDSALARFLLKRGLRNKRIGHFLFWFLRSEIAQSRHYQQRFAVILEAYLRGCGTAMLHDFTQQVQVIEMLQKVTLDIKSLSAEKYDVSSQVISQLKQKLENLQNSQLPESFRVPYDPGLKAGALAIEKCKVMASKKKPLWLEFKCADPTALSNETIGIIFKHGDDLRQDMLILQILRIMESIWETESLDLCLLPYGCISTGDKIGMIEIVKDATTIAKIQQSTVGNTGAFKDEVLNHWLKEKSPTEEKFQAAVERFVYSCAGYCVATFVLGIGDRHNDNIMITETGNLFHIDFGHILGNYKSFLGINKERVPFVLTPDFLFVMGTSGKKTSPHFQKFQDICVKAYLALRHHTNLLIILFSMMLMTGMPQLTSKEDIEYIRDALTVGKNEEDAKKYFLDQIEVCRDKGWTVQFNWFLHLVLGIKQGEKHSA
IC50 (PI3Kγ) [nM],IC50 (PI3Kδ) [nM],SMILES
> 1000,10 to 1000,"CC(c1oc(=O)c2ccccc2c1C1=CCN(C)CC1)n1nc(-c2cc(O)cc(F)c2)c2c(N)ncnc21 (single isomer, unassigned) [Example 46b, 3-1-(4-amino-3-(3-fluoro-5-hydroxyphenyl)-1H-pyrazolo[3,4-d]pyrimidin-1-yl)ethyl)-4-(1-methyl-1,2,3,6-tetrahydropyridin-4-yl)-1H-isochromen-1-one hydrochloride]"
,10 to 1000,"CC(c1oc(=O)c2ccccc2c1-c1cccc(CN(C)C)c1)n1nc(-c2cc(O)cc(F)c2)c2c(N)ncnc21 (single isomer, unassigned) [Example 67b, 3-(1-(4-amino-3-(3-fluoro-5-hydroxyphenyl)-1H-pyrazolo[3,4-d]pyrimidin-1-yl)ethyl)-4-(3-((dimethylamino)methyl)phenyl)-1H-isochromen-1-one]"
,10 to 1000,"CC(c1oc(=O)c2ccccc2c1-c1ccc(CN2CCCCC2)s1)n1nc(-c2cc(O)cc(F)c2)c2c(N)ncnc21 (single isomer, unassigned) [Example 68a, 3-(1-(4-amino-3-(3-fluoro-5-hydroxyphenyl)-1H-pyrazolo[3,4-d]pyrimidin-1-yl)ethyl)-4-(5-(piperidin-1-ylmethyl)thiophen-2-yl)-1H-isochromen-1-one hydrochloride single enantiomers]"
,10 to 1000,"CC(c1oc(=O)c2ccccc2c1-c1ccc(CN2CCN(CCO)CC2)s1)n1nc(-c2cc(O)cc(F)c2)c2c(N)ncnc21 (single isomer, unassigned) [Example 76a, 3-(1-(4-amino-3-(3-fluoro-5-hydroxyphenyl)-1H-pyrazolo[3,4-d]pyrimidin-1-yl)ethyl)-4-(5-((4-(2-hydroxyethyl)piperazin-1-yl)methyl)thiophen-2-yl)-1H-isochromen-1-one hydrochloride]"
,> 1000,"CC(c1oc(=O)c2ccccc2c1-c1ccc(CCCN(C)C)cc1)n1nc(-c2cc(O)cc(F)c2)c2c(N)ncnc21 (single isomer, unassigned) [Example 138a, 3-(1-(4-amino-3-(3-fluoro-5-hydroxyphenyl)-1H-pyrazolo[3,4-d]pyrimidin-1-yl)ethyl)-4-(4-(3-(dimethylamino)propyl)phenyl)-1H-isochromen-1-one single enantiomers]"
10 to 1000,10 to 1000,"CC(c1oc(=O)c2ccccc2c1-c1ccccc1)n1cnc2c(N)ncnc21 (stereo not shown) [Example 5, 3-(1-(6-Amino-9H-1-purin-9-yl)ethyl)-4-phenyl-1H-isochromen-1-one]"
10 to 1000,10 to 1000,"Cc1cccc(-c2c(C(C)n3cnc4c(N)ncnc43)oc(=O)c3ccccc23)c1 (stereo not shown) [Example 6, 3-(1-(6-Amino-9H-purin-9-yl)ethyl)-4-m-tolyl-1H-isochromen-1-one]"
10 to 1000,10 to 1000,"CC(c1oc(=O)c2ccccc2c1-c1cccc(F)c1)n1cnc2c(N)ncnc21 (stereo not shown) [Example 7, 3-(1-(6-Amino-9H-purin-9-yl)ethyl)-4-(3-fluorophenyl)-1H-isochromen-1-one]"
10 to 1000,10 to 1000,"CC(c1oc(=O)c2ccccc2c1-c1cccc(N(C)C)c1)n1cnc2c(N)ncnc21 (stereo not shown) [Example 8, 3-(1-(6-Amino-9H-purin-9-yl)ethyl)-4-(3-(dimethylamino)phenyl)-1H-isochromen-1-one]"
10 to 1000,10 to 1000,"CC(c1oc(=O)c2ccccc2c1-c1cccc(S(=O)(=O)N2CCOCC2)c1)n1cnc2c(N)ncnc21 (stereo not shown) [Example 9, 3-(1-(6-Amino-9H-purin-9-yl)ethyl)-4-(3-(morpholinosulfonyl)phenyl)-1H-isochromen-1-one]"
> 1000,> 1000,"O=c1oc(CSc2ncnc3[nH]cnc23)c(-c2ccccc2)c2ccccc12 [Example 10, 3-((9H-Purin-6-ylthio)methyl)-4-phenyl-1H-isochromen-1-one]"
> 1000,10 to 1000,"Cc1cccc(-c2c(C(C)Sc3ncnc4[nH]cnc34)oc(=O)c3ccccc23)c1 (stereo not shown) [Example 13, 3-(1-(9H-Purin-6-ylthio)ethyl)-4-m-tolyl-1H-isochromen-1-one]"
> 1000,10 to 1000,"CC(Sc1ncnc2[nH]cnc12)c1oc(=O)c2ccccc2c1-c1cccc(F)c1 (stereo not shown) [Example 14, 3-(1-(9H-Purin-6-ylthio)ethyl)-4-(3-fluorophenyl)-1H-isochromen-1-one]"
10 to 1000,10 to 1000,"CC(c1oc(=O)c2ccccc2c1-c1cccc(S(=O)(=O)N2CCOCC2)c1)n1ncc2c(N)ncnc21 (stereo not shown) [Example 16, 3-(1-(4-Amino-1H-pyrazolo[3,4-d]pyrimidin-1-yl)ethyl)-4-(3-(morpholinosulfonyl)phenyl)-1H-isochromen-1-one]"
,10 to 1000,"Cc1cc(-c2c(C(C)n3ncc4c(N)ncnc43)oc(=O)c3ccccc23)ccn1 (stereo not shown) [Example 19, 3-(1-(4-Amino-1H-pyrazolo[3,4-d]pyrimidin-1-yl)ethyl)-4-(2-methylpyridin-4-yl)-1H-isochromen-1-one]"
,10 to 1000,"CC(c1oc(=O)c2ccccc2c1Cc1ccccc1)n1ncc2c(N)ncnc21 (stereo not shown) [Example 20, 3-(1-(4-Amino-1H-pyrazolo[3,4-d]pyrimidin-1-yl)ethyl)-4-benzyl-1H-isochromen-1-one]"
,10 to 1000,"CC(c1oc(=O)c2ccccc2c1-c1ccccc1)n1nc(-c2cnc(O)nc2)c2c(N)ncnc21 (stereo not shown) [Example 56, 3-(1-(4-amino-3-(2-hydroxypyrimidin-5-yl)-1H-pyrazolo[3,4-d]pyrimidin-1-yl)ethyl)-4-phenyl-1H-isochromen-1-one]"
,10 to 1000,"CC(c1oc(=O)c2ccccc2c1-c1ccccc1)n1nc(-c2cncc(O)n2)c2c(N)ncnc21 (stereo not shown) [Example 90, 3-(1-(4-amino-3-(6-hydroxypyrazin-2-yl)-1H-pyrazolo[3,4-d]pyrimidin-1-yl)ethyl)-4-phenyl-1H-isochromen-1-one]"
,> 1000,"CC(c1oc(=O)c2ccccc2c1-c1ccccc1)n1nc(-c2cc(F)cc(Cl)c2)c2c(N)ncnc21 (stereo not shown) [Example 95, 3-(1-(4-amino-3-(3-chloro-5-fluorophenyl)-1H-pyrazolo[3,4-d]pyrimidin-1-yl)ethyl)-4-phenyl-1H-isochromen-1-one]"
,10 to 1000,"CC(c1oc(=O)c2ccccc2c1-c1ccccc1)n1nc(-c2cncc(S(C)(=O)=O)c2)c2c(N)ncnc21 (stereo not shown) [Example 96, 3-(1-(4-amino-3-(5-(methylsulfonyl)pyridin-3-yl)-1H-pyrazolo[3,4-d]pyrimidin-1-yl)ethyl)-4-phenyl-1H-isochromen-1-one]"
,10 to 1000,"CC(c1oc(=O)c2ccccc2c1-c1ccccc1)n1nc(-c2cnc(O)c(F)c2)c2c(N)ncnc21 (stereo not shown) [Example 98, 3-(1-(4-amino-3-(5-fluoro-6-hydroxypyridin-3-yl)-1H-pyrazolo[3,4-d]pyrimidin-1-yl)ethyl)-4-phenyl-1H-isochromen-1-one]"
,10 to 1000,"CC(c1oc(=O)c2ccccc2c1-c1ccccc1)n1nc(-c2cncc(C(F)(F)F)c2)c2c(N)ncnc21 (stereo not shown) [Example 100, 3-(1-(4-amino-3-(5-(trifluoromethyl)pyridin-3-yl)-1H-pyrazolo[3,4-d]pyrimidin-1-yl)ethyl)-4-phenyl-1H-isochromen-1-one]"
,10 to 1000,"CC(c1oc(=O)c2ccccc2c1-c1ccccc1)n1nc(-c2cc(O)cc(S(F)(F)(F)(F)F)c2)c2c(N)ncnc21 (stereo not shown) [Example 101, 3-(1-(4-amino-3-(5-hydroxy-3-sulfurpentafluoride)-1H-pyrazolo[3,4-d]pyrimidin-1-yl)ethyl)-4-phenyl-1H-isochromen-1-one]"
10 to 1000,,"CC(c1oc(=O)c2ccccc2c1-c1ccccc1)n1nc(-c2cncc(C#N)c2)c2c(N)ncnc21 (stereo not shown) [Example 102, 5-(4-amino-1-(1-(1-oxo-4-phenyl-1H-isochromen-3-yl)ethyl)-1H-pyrazolo[3,4-d]pyrimidin-3-yl)nicotinonitrile]"
,10 to 1000,"CC(Nc1ncnc2sccc12)c1oc(=O)c2ccccc2c1-c1ccccc1 (stereo not shown) [Example 108, 4-phenyl-3-(1-(thieno[2,3-d]pyrimidin-4-ylamino)ethyl)-1H-isochromen-1-one]"
,10 to 1000,"CC(c1oc(=O)c2ccccc2c1-c1ccccc1)n1nc(-c2ccc3[nH]nc(N)c3c2)c2c(N)ncnc21 (stereo not shown) [Example 113, 3-(1-(4-amino-3-(3-amino-1H-indazol-5-yl)-1H-pyrazolo[3,4-d]pyrimidin-1-yl)ethyl)-4-phenyl-1H-isochromen-1-one]"
,> 1000,"CC(c1oc(=O)c2ccccc2c1-c1ccc(CN2CCNCC2)cc1)n1ncc2c(N)ncnc21 (stereo not shown) [Example 127, 3-(1-(4-amino-1H-pyrazolo[3,4-d]pyrimidin-1-yl)ethyl)-4-(4-(piperazin-1-ylmethyl)phenyl)-1H-isochromen-1-one hydrochloride]"
